# Columns and labels:
# [1] = system: BxPC-3 tumor cells; test: FACS selective binding assay, tumor cells; format: cell-based; settings: BxPC-3, 30 min at 4° C.
# Experimental: (§1) Briefly, freshly prepared red blood cells (from healthy donors) and BxPC-3 tumor cells (Procell, Wuhan, China) were used as target cells. […] The cells were washed at least twice with PBS and analyzed with flow cytometry after incubation.
# [2] = system: red blood cells (from healthy donors); test: FACS selective binding assay, red blood cells; format: cell-based; settings: 30 min at 4° C.
# Experimental: as §1
substance,measurement,setting,value
"Hu5F9-G4: anti-CD47 antibody, expressed and prepared in house [reference compound]",binding to target cells,[1],specifically bind
same,binding to target cells,[2],binds with high affinity

# — patent US20250295804A1, “PEG BASED ANTI-CD47/ANIT-PD-L1 BISPECIFIC ANTIBODY-DRUG CONJUGATE” (Shenzhen Enduring Biotech, Ltd., priority 2022, published 2025)
